# Experimental data taken from patent publication US20250381179A1, “CHROMAN-BASED COMPOUNDS FOR TREATING CANCER” (priority 2024, published 2025).
# Experiment: Phase 1 study: safety and tolerability (TEAEs, NCI CTCAE v5.0)
# Procedure: The study employed an open-label, 3+3 design, with the option of adding backfill patients to each cohort cleared and deemed safe. […] Tumor responses were assessed every 2 cycles using RECIST v1.1 criteria. […] The study also involves an ongoing dose escalation study where participants receive 100 mg, 200 mg, 300 mg, 400 mg, and 600 mg once daily (QD) dose levels.
# Safety was assessed through the analysis of the reported incidence of treatment-emergent AEs. Treatment-emergent AEs are those with an onset on or after the initiation of therapy and will be graded according to NCI CTCAE Version 5.0. Other safety endpoints, including laboratory results, vital signs, and ECG findings, were summarized for all patients in the Safety set.
compound,measurement,setting,value
"O=C1CC[C@H](N2Cc3cc(N4CCN(CC5CCN(c6ccc([C@@H]7c8ccc(O)cc8OC[C@@H]7c7ccccc7)cc6F)CC5)CC4)ccc3C2=O)C(=O)N1 [compound (1-g), (S)-3-(5-(4-((1-(2-fluoro-4-((3S,4R)-7-hydroxy-3-phenylchroman-4-yl)phenyl)piperidin-4-yl)methyl)piperazin-1-yl)-1-oxoisoindolin-2-yl)piperidine-2,6-dione]",TEAE: Nausea,400 mg QD (N = 6),1 (16.7) n (%)
same,TEAE: Neutrophil Count Decreased,400 mg QD (N = 6),2 (33.3) n (%)
same,TEAE: Oedema Peripheral,400 mg QD (N = 6),1 (16.7) n (%)
same,TEAE: Ophthalmic Migraine,400 mg QD (N = 6),0 n (%)
same,TEAE: Oral Pain,400 mg QD (N = 6),0 n (%)
same,TEAE: Pain In Extremity,400 mg QD (N = 6),0 n (%)
same,TEAE: Pharyngitis,400 mg QD (N = 6),0 n (%)
same,TEAE: Platelet Count Decreased,400 mg QD (N = 6),1 (16.7) n (%)
same,TEAE: Pleural Effusion,400 mg QD (N = 6),0 n (%)
same,TEAE: Pneumonia,400 mg QD (N = 6),0 n (%)
same,TEAE: Productive Cough,400 mg QD (N = 6),0 n (%)
same,TEAE: Rash Maculo-Papular,400 mg QD (N = 6),0 n (%)
same,TEAE: Rhinitis Allergic,400 mg QD (N = 6),0 n (%)
same,TEAE: Rib Fracture,400 mg QD (N = 6),0 n (%)
same,TEAE: Seizure,400 mg QD (N = 6),0 n (%)
same,TEAE: Sepsis,400 mg QD (N = 6),0 n (%)
same,TEAE: Tremor,400 mg QD (N = 6),0 n (%)
same,TEAE: Upper Respiratory Tract Infection,400 mg QD (N = 6),0 n (%)
same,TEAE: Urinary Tract Infection,400 mg QD (N = 6),0 n (%)
same,TEAE: Vaginal Haemorrhage,400 mg QD (N = 6),0 n (%)
same,TEAE: Vomiting,400 mg QD (N = 6),0 n (%)
same,related TEAE: Alopecia,400 mg QD (N = 6),1 (16.7) n (%)
same,related TEAE: Arthralgia,400 mg QD (N = 6),0 n (%)
same,related TEAE: Constipation,400 mg QD (N = 6),1 (16.7) n (%)
same,related TEAE: Diarrhea,400 mg QD (N = 6),1 (16.7) n (%)
same,related TEAE: Dysgeusia,400 mg QD (N = 6),1 (16.7) n (%)
same,related TEAE: Eructation,400 mg QD (N = 6),1 (16.7) n (%)
same,related TEAE: Fatigue,400 mg QD (N = 6),0 n (%)
same,related TEAE: Flatulence,400 mg QD (N = 6),1 (16.7) n (%)
same,related TEAE: Hot Flush,400 mg QD (N = 6),0 n (%)
same,related TEAE: Hyperhidrosis,400 mg QD (N = 6),0 n (%)
same,related TEAE: Nail Disorder,400 mg QD (N = 6),1 (16.7) n (%)
same,related TEAE: Nausea,400 mg QD (N = 6),1 (16.7) n (%)
same,related TEAE: Neutrophil Count Decreased,400 mg QD (N = 6),2 (33.3) n (%)
same,related TEAE: Platelet Count Decreased,400 mg QD (N = 6),1 (16.7) n (%)
same,related TEAE: Tremor,400 mg QD (N = 6),0 n (%)
same,related TEAE: Vomiting,400 mg QD (N = 6),0 n (%)
same,Patients with Any Compound (1-g) related TEAE,600 mg QD (N = 4),2 (50.0) n (%)
same,Patients with Any TEAE,600 mg QD (N = 4),2 (50.0) n (%)
same,TEAE: Abdominal Distension,600 mg QD (N = 4),0 n (%)
same,TEAE: Abdominal Pain,600 mg QD (N = 4),0 n (%)
same,TEAE: Acute Kidney Injury,600 mg QD (N = 4),0 n (%)
same,TEAE: Adrenal Insufficiency,600 mg QD (N = 4),0 n (%)
same,TEAE: Alopecia,600 mg QD (N = 4),0 n (%)
same,TEAE: Anaemia,600 mg QD (N = 4),0 n (%)
same,TEAE: Anxiety,600 mg QD (N = 4),0 n (%)
same,TEAE: Arthralgia,600 mg QD (N = 4),0 n (%)
same,TEAE: Axillary Vein Thrombosis,600 mg QD (N = 4),0 n (%)
same,TEAE: Back Pain,600 mg QD (N = 4),1 (25.0) n (%)
same,TEAE: Basal Cell Carcinoma,600 mg QD (N = 4),0 n (%)
same,TEAE: Breast Pain,600 mg QD (N = 4),0 n (%)
same,TEAE: Confusional State,600 mg QD (N = 4),0 n (%)
same,TEAE: Constipation,600 mg QD (N = 4),1 (25.0) n (%)
same,TEAE: Cough,600 mg QD (N = 4),0 n (%)
same,TEAE: Covid-19 Pneumonia,600 mg QD (N = 4),0 n (%)
same,TEAE: Dehydration,600 mg QD (N = 4),0 n (%)
same,TEAE: Diarrhoea,600 mg QD (N = 4),0 n (%)
same,TEAE: Dizziness,600 mg QD (N = 4),0 n (%)
same,TEAE: Dysgeusia,600 mg QD (N = 4),0 n (%)
same,TEAE: Dyspepsia,600 mg QD (N = 4),0 n (%)
same,TEAE: Dyspnoea,600 mg QD (N = 4),0 n (%)
same,TEAE: Dysuria,600 mg QD (N = 4),0 n (%)
same,TEAE: Eructation,600 mg QD (N = 4),0 n (%)
same,TEAE: Fall,600 mg QD (N = 4),0 n (%)
same,TEAE: Fatigue,600 mg QD (N = 4),0 n (%)
same,TEAE: Flatulence,600 mg QD (N = 4),0 n (%)
same,TEAE: Fracture,600 mg QD (N = 4),0 n (%)
same,TEAE: Fungal Infection,600 mg QD (N = 4),0 n (%)
same,TEAE: Haematoma,600 mg QD (N = 4),0 n (%)
same,TEAE: Hot Flush,600 mg QD (N = 4),1 (25.0) n (%)
same,TEAE: Hyperglycaemia,600 mg QD (N = 4),0 n (%)
same,TEAE: Hyperhidrosis,600 mg QD (N = 4),1 (25.0) n (%)
same,TEAE: Hypokalaemia,600 mg QD (N = 4),0 n (%)
same,TEAE: Hypotension,600 mg QD (N = 4),0 n (%)
